In US20110112135A1, “Imidazo [1,2-A] Pyridine Compounds” (priority 2007, published 2011):

Assays:
human LXRβ = biological target: T1, human LXRβ (Homo sapiens, UniProt P55055); assay: Ligand-binding test procedure for human LXRβ (3H T0901317 tracer, flash plates); details: biotinylated hLXRβ from E. coli extract; tracer 3H T0901317
T1 construct: biotin (biotinylated); made in house; host or cells: E. coli (crude extract)
T1 sequence (P55055 1-460): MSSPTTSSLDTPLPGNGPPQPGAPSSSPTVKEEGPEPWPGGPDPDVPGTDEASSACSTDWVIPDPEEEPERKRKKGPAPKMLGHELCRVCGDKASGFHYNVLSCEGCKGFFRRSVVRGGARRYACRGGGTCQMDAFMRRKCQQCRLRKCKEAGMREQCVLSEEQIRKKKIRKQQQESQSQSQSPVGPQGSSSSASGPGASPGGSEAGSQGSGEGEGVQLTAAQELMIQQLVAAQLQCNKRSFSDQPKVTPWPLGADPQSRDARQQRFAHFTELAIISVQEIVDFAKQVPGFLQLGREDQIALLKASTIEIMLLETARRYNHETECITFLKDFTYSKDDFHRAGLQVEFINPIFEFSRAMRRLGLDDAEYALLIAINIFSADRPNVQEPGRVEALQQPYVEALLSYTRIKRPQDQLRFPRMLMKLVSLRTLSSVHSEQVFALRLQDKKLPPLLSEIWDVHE
Method: I. Ligand-Binding Test Procedure for Human LXRβ.
Receptor source: E. coli extract from cells expressing biotinylated hLXRβ. Extract was made in a similar buffer as above, but with 50 mM TRIS.
(§1) Washed streptavidin and coated flash plates with wash buffer. Diluted receptor extract to give Bmax ˜4000 cpm and add to the wells. Wrapped the plates in aluminum foil and stored them at +4° C. over night.
(§2) Made a dilution series in DMSO of the test ligands. Made a 5 nM solution of the radioactive tracer in buffer. Mixed 250 μl diluted tracer with 5 μl of the test ligand from each concentration of the dilution series. Washed the receptor-coated flash plates. Added 200 μl per well of the ligand/radiolabel mixture to the receptor-coated flash plates. Wrapped the plates in aluminum foil and incubate at +4° C. over night.
(§3) Aspirated wells, and wash the flashed plates. Sealed the plate. Measured the remaining radioactivity in the plate.

human LXRα = biological target: T2, human LXRα (Homo sapiens, UniProt Q13133); assay: Ligand-binding test procedure for human LXRα (3H T0901317 tracer, flash plates); details: biotinylated hLXRα from E. coli extract; tracer 3H T0901317
T2 construct: biotin (biotinylated); made in house; host or cells: E. coli (crude extract)
T2 sequence (Q13133 1-447): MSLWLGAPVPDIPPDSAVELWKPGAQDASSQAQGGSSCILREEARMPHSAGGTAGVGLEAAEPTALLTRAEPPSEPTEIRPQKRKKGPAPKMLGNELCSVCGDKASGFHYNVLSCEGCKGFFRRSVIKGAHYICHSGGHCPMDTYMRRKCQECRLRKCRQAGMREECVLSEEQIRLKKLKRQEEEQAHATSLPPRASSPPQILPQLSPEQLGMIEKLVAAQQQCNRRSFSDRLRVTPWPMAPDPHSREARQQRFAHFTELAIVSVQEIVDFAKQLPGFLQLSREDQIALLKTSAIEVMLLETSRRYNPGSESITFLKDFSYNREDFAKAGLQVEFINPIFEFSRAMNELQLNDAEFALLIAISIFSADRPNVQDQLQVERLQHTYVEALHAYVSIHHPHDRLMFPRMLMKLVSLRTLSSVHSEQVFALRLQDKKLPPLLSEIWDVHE
Method: II. Ligand-Binding Test Procedure for Human LXRα.
Receptor source: E. coli extract from cells expressing biotinylated hLXRα. Extract was made in a similar buffer as above, but with 50 mM TRIS.
as §1, §2, §3

| IC50 (human LXRβ) [nM] | IC50 (human LXRα) [nM] | SMILES |
| --- | --- | --- |
| 3060 | 41100 | CCc1nc2c(C#N)cccn2c1-c1cccc(OCc2cccc(S(C)(=O)=O)c2)c1 [Example 54, 2-ethyl-3-(3-{[3-(methylsulfonyl)benzyl]oxy}phenyl)imidazo[1,2-a]pyridine-8-carbonitrile] |
| 1100 | 28500 | CC(C)c1nc2c(C#N)cccn2c1-c1cccc(OCc2cccc(S(C)(=O)=O)c2)c1 [Example 55, 2-isopropyl-3-(3-{[3-(methylsulfonyl)benzyl]oxy}phenyl)imidazo[1,2-a]pyridine-8-carbonitrile] |
| 4190 | 36500 | CC(C)c1nc2c(C(F)(F)F)cccn2c1-c1cccc(OCc2ccc(S(C)(=O)=O)cc2)c1 [Example 56, 2-isopropyl-3-(3-{[4-(methylsulfonyl)benzyl]oxy}phenyl)-8-(trifluoromethyl)imidazo[1,2-a]pyridine] |
| 8430 | > 1000 | CC(C)c1nc2c(Cl)cccn2c1-c1cccc(OCc2ccc(S(C)(=O)=O)cc2)c1 [Example 57, 8-chloro-2-isopropyl-3-(3-{[4-(methylsulfonyl)benzyl]oxy}phenyl)imidazo[1,2-a]pyridine] |
| > 1000 | > 1000 | CCc1nc2c(C#N)cccn2c1-c1cccc(OCc2ccc(S(C)(=O)=O)cc2)c1 [Example 58, 2-ethyl-3-(3-{[4-(methylsulfonyl)benzyl]oxy}phenyl)imidazo[1,2-a]pyridine-8-carbonitrile] |
| > 1000 | > 1000 | CC(C)c1nc2c(C#N)cccn2c1-c1cccc(OCc2ccc(S(C)(=O)=O)cc2)c1 [Example 59, 2-isopropyl-3-(3-{[4-(methylsulfonyl)benzyl]oxy}phenyl)imidazo[1,2-a]pyridine-8-carbonitrile] |
| 91.5 | 2810 | CNCCCS(=O)(=O)c1cccc(Oc2cccc(-c3c(C(C)C)nc4c(C(F)(F)F)cccn34)c2)c1 [Example 62, 3-[(3-{3-[2-isopropyl-8-(trifluoromethyl)imidazo[1,2-a]pyridin-3-yl]phenoxy}phenyl)sulfonyl]-N-methylpropan-1-amine] |
| 161 | 2700 | CCc1nc2c(C#N)cccn2c1-c1cccc(Oc2cccc(S(C)(=O)=O)c2)c1 [Example 69, 2-ethyl-3-{3-[3-(methylsulfonyl)phenoxy]phenyl}imidazo[1,2-a]pyridine-8-carbonitrile] |
| 5.6 | 135 | CCS(=O)(=O)c1cccc(Oc2cccc(-c3c(C(C)(C)C)nc4c(C(F)(F)F)cccn34)c2)c1 [Example 76, 2-tert-butyl-3-{3-[3-(ethylsulfonyl)phenoxy]phenyl}-8-(trifluoromethyl)imidazo[1,2-a]pyridine] |
| 6.1 | 160 | CC(C)S(=O)(=O)c1cccc(Oc2cccc(-c3c(C(C)(C)C)nc4c(C(F)(F)F)cccn34)c2)c1 [Example 77, 2-tert-butyl-3-{3-[3-(isopropylsulfonyl)phenoxy]phenyl}-8-(trifluoromethyl)imidazo[1,2-a]pyridine] |
| 16.3 | 526 | CC(C)S(=O)(=O)c1cccc(Oc2cccc(-c3c(C(C)(C)C)nc4c(C#N)cccn34)c2)c1 [Example 80, 2-tert-butyl-3-{3-[3-(isopropylsulfonyl)phenoxy]phenyl}imidazo[1,2-a]pyridine-8-carbonitrile] |
| 152 | 2390 | CC(C)(C)c1nc2c(C#N)cccn2c1-c1cccc(Oc2cccc(S(=O)(=O)CCCO)c2)c1 [Example 81, 2-tert-butyl-3-(3-{3-[(3-hydroxypropyl)sulfonyl]phenoxy}phenyl)imidazo[1,2-a]pyridine-8-carbonitrile] |
| 83 | 2750 | CS(=O)(=O)c1cccc(Oc2cccc(-c3c(Cl)nc4c(C(F)(F)F)cccn34)c2)c1 [Example 85, 2-chloro-3-{3-[3-(methylsulfonyl)phenoxy]phenyl}-8-(trifluoromethyl)imidazo[1,2-a]pyridine] |
| > 1000 | > 1000 | CCc1nc2c(C(F)(F)F)cccn2c1-c1cccc(Oc2cccc(S(C)(=O)=O)c2)n1 [Example 88, 2-ethyl-3-{6-[3-(methylsulfonyl)phenoxy]pyridin-2-yl}-8-(trifluoromethyl)imidazo[1,2-a]pyridine] |
| > 1000 | > 1000 | CC(C)c1nc2c(C(F)(F)F)cccn2c1-c1cccc(Oc2cccc(S(C)(=O)=O)c2)n1 [Example 89, 2-isopropyl-3-{6-[3-(methylsulfonyl)phenoxy]pyridin-2-yl}-8-(trifluoromethyl)imidazo[1,2-a]pyridine] |
| 1590 | > 1000 | CCc1nc2c(C(F)(F)F)cccn2c1-c1ccc(-c2ccc(S(=O)(=O)C(C)C)cc2)cc1 [Example 92, 2-ethyl-3-(4′-(isopropylsulfonyl)biphenyl-4-yl)-8-(trifluoromethyl)imidazo[1,2-a]pyridine] |
| 4080 | > 1000 | CCc1nc2c(C(F)(F)F)cccn2c1-c1ccc(-c2ccc(S(C)(=O)=O)cc2)cc1 [Example 93, 2-ethyl-3-(4′-(methylsulfonyl)biphenyl-4-yl)-8-(trifluoromethyl)imidazo[1,2-a]pyridine] |
| > 1000 | > 1000 | CC(C)c1nc2c(C(F)(F)F)cccn2c1-c1ccc(-c2ccc(S(C)(=O)=O)cc2)cc1 [Example 94, 2-isopropyl-3-(4′-(methylsulfonyl)biphenyl-4-yl)-8-(trifluoromethyl)imidazo[1,2-a]pyridine] |
| 135 | 2640 | CCc1nc2c(C(F)(F)F)cccn2c1-c1ccc(-c2cccc(S(C)(=O)=O)c2)cc1 [Example 95, 2-ethyl-3-(3′-(methylsulfonyl)biphenyl-4-yl)-8-(trifluoromethyl)imidazo[1,2-a]pyridine] |
| > 1000 | > 1000 | CC(C)c1nc2c(Cl)cccn2c1-c1cccc(Oc2ccc(S(N)(=O)=O)cc2)c1 [Example 99, 4-[3-(8-chloro-2-isopropylimidazo[1,2-a]pyridin-3-yl)phenoxy]benzenesulfonamide] |
| > 1000 | > 1000 | CCc1nc2c(C(F)(F)F)cccn2c1-c1ccc(Cc2cccc(S(C)(=O)=O)c2)cc1 [Example 101, 2-ethyl-3-{4-[3-(methylsulfonyl)benzyl]phenyl}-8-(trifluoromethyl)imidazo[1,2-a]pyridine] |
| 336 | > 1000 | CCc1nc2c(C(F)(F)F)cccn2c1-c1ccc(Oc2cccc(S(C)(=O)=O)c2)cc1 [Example 102, 2-ethyl-3-{4-[3-(methylsulfonyl)phenoxy]phenyl}-8-(trifluoromethyl)imidazo[1,2-a]pyridine] |
| 417 | > 1000 | CCc1nc2c(Cl)cccn2c1-c1ccc(Oc2cccc(S(C)(=O)=O)c2)cc1 [Example 103, 8-chloro-2-ethyl-3-{4-[3-(methylsulfonyl)phenoxy]phenyl}imidazo[1,2-a]pyridine] |
| 230 | > 1000 | CCc1nc2c(C(F)(F)F)cccn2c1-c1ccc(Oc2cccc(S(=O)(=O)CC)c2)cc1 [Example 105, 2-ethyl-3-{4-[3-(ethylsulfonyl)phenoxy]phenyl}-8-(trifluoromethyl)imidazo[1,2-a]pyridine] |
| 430 | > 1000 | CCc1nc2c(Cl)cccn2c1-c1ccc(Oc2cccc(S(=O)(=O)CC)c2)cc1 [Example 106, 8-chloro-2-ethyl-3-{4-[3-(ethylsulfonyl)phenoxy]phenyl}imidazo[1,2-a]pyridine] |
| 268 | > 1000 | CCc1nc2c(Cl)cccn2c1-c1cccc(COc2cccc(S(C)(=O)=O)c2)c1 [Example 109, 8-chloro-2-ethyl-3-(3-{[3-(methylsulfonyl)phenoxy]methyl}phenyl)imidazo[1,2-a]pyridine] |
| > 1000 | > 1000 | CCc1nc2c(C(F)(F)F)cccn2c1-c1ccc(COc2cccc(S(C)(=O)=O)c2)cc1 [Example 111, 2-ethyl-3-(4-{[3-(methylsulfonyl)phenoxy]methyl}phenyl)-8-(trifluoromethyl)imidazo[1,2-a]pyridine] |
